Data reported in article PMC10766536 (The Journal of Antibiotics, 2023).
Entries after “also recorded” stand apart in the source; their conditions may differ.

Experiments:
hERG = hERG (Homo sapiens, UniProt Q12809); experiment: in vitro
[1] = target: MDCK-MDR1: overexpression of Pgp (Homo sapiens, UniProt P08183); experiment: MDCK-MDR1 permeability and efflux
in vitro [2] = details: SD, rat
[3] = system: Salmonella typhimurium AR-0031; experiment: S. typhimurium broth killing (growth inhibition) assay; details: Salmonella typhimurium AR-0031, TSB, 24 h
Description: (§3) To test the potency of rifamycin analogs of the disclosure in vitro, a broth growth inhibition assay was developed.

[4] = Compound stability in CYP induction assay
S. aureus NRS384 [5] = experiment: S. aureus broth killing (growth inhibition) assay; details: S. aureus NRS384, TSB, 24 h, OD600
Description: as §3

[6] = system: Salmonella typhimurium ATCC 14028; experiment: S. typhimurium broth killing (growth inhibition) assay; details: Salmonella typhimurium ATCC 14028, TSB, 24 h
Description: as §3

[7] = Human plasma protein binding
P-gp (MDR1) = P-gp (MDR1) (Homo sapiens, UniProt P08183); experiment: in vitro; details: dog, MDCK-MDR1
in vitro [8] = details: human, Caco-2
endogenous transporters = experiment: in vitro; details: human, Caco-2
[9] = human
in vitro [10] = details: CD-1, mouse
S. aureus NRS384 [11] = experiment: S. aureus intracellular killing assay in THP-1 macrophages; type: cell-based; details: S. aureus NRS384 in THP-1 macrophages, 2 h, top conc. 1e−6 M
Description: (§1) THP-1 monocytic cell line (American Type Culture Collection) was grown in media (RPMI + 10% FBS + 1% Penicillin/Streptomycin), then seeded at a density of 1e5 cells/well in a 96 well plate and differentiated into macrophages for 3 days prior to infection using 200 nM PMA. Overnight culture of S. aureus or S. typhimurium was grown in RPMI or TSB, respectively, washed twice with PBS and resuspended at 1e7 cfu/ml in PBS. THP-1 were washed with warm media (RMPI without FBS) to remove the Penicillin/Streptomycin and then infected with the bacterial suspension at a multiplicity of infection of 10:1 (S. aureus:macrophages) or 5:1 (S. typhimurium:macrophages). Plates were centrifuged at 300 × g for 5 min to synchronize adhesion of the bacteria to the macrophages, then incubated at 37 °C for 2 h for S. aureus infection or 1 h for S. typhimurium infection. Free-floating bacteria were removed by washing twice with warm media and the remaining extracellular bacteria were killed by addition of media containing gentamicin (50 ug/ml). After 1 h, media was aspirated and the indicated compound was added to the S. aureus-infected macrophages in a dilution series starting at 1e−6 M, with 1:5 dilutions for 6 points (1.0 × 10^−6 M, 2.0 × 10^−7 M, 4.0 × 10^−8 M, 8.0 × 10^−9 M, 1.6 × 10^−9 M, and 3.2 × 10^−10 M) or to the to the S. typhimurium-infected macrophages in a dilution series starting at 1e−4 M, with 1:3 dilutions followed by 1:10 dilutions for 6 points (1.0 × 10^−4 M, 3.0 × 10^−5 M, 1.0 × 10^−5 M, 1.0 × 10^−6 M, 1.0 × 10^−7 M, and 1.0 × 10^−8 M). The compounds were added in media containing 50 µg/ml gentamicin to prevent extracellular growth of bacteria. After 2 h, plates were washed twice with warm RPMI without FBS, and 100 μl of THP-1 lysis buffer (0.1% Triton in PBS) was added to each well. Bacterial survival was enumerated by colony forming units (cfu) through serial dilution and plating onto tryptic soy agar (TSA, Teknova) plates.

[12] = system: Salmonella typhimurium ATCC 14028; experiment: S. typhimurium intracellular killing assay in THP-1 macrophages; type: cell-based; details: Salmonella typhimurium ATCC 14028 in THP-1 macrophages, top conc. 1e−4 M
Description: as §1

[13] = system: Salmonella typhimurium AR-0031; experiment: as above; type: cell-based; details: Salmonella typhimurium AR-0031 in THP-1 macrophages, top conc. 1e−4 M
Description: as §1

[14] = system: S. aureus MRSA strain NRS384; experiment: S. aureus IV advanced disseminated infection mouse model, kidney burden; type: in vivo, Balb/c mice; details: for S. aureus kidney burden, efficacy: NRS384
Description: (§2) S. aureus MSRA strain NRS384 or N315 (BEI Resources), where indicated, was grown overnight in TSB and sub-cultured to mid-logarithmic phase. […] From 1 to 3 days post-infection, indicated mice were injected subcutaneously with 110 mg/kg vancomycin twice daily where indicated. […] Mice were monitored for weight loss and body conditioning score throughout the infection. At 4 days post-infection, mice were euthanized, and the S. aureus kidney burden was quantified by tissue homogenization followed by enumeration of cfu through serial dilution in PBS and plating onto TSA plates. Data points represent the kidney burden from individual mice tested. Statistical analysis was conducted with GraphPad Prism 9, Version 9.4.1.

[15] = system: S. aureus MRSA strain N315; experiment: as above; type: in vivo, Balb/c mice
Description: as §2

[16] = system: Caco-2: endogenous transporters; experiment: Caco-2 permeability
CYP1A2 = experiment: in vitro; details: human
CYP2B6 = experiment: in vitro; details: human
CYP3A4 = experiment: in vitro; details: human
Sprague Dawley rats = experiment: 2-week IV once-a-day toxicity study with 2-week recovery in Sprague Dawley rats
Description: A subset from each dose group was maintained for 14 days after the last dose to evaluate delayed toxicity and/or recovery. All animals were observed twice daily for mortality and signs of pain or distress. Detailed clinical observations, body weight measurements and food consumption were conducted weekly; post dose observations (30 min post dose) were conducted daily or as required. Clinical pathology evaluations (hematology, coagulation parameters, and serum chemistry) were performed using samples collected on the day of scheduled sacrifice (main and recovery). At the end of the 14-day dosing period, and at the end of the 14-day recovery period, necropsies were performed on all animals, selected organs were weighed, and tissues were examined macroscopically and microscopically. Toxicokinetic parameters were evaluated on Day 1 and 14.

[17] = 25 mg/kg in combination with vancomycin

MDCK-MDR1: overexpression of Pgp, sequence (P08183 whole entry): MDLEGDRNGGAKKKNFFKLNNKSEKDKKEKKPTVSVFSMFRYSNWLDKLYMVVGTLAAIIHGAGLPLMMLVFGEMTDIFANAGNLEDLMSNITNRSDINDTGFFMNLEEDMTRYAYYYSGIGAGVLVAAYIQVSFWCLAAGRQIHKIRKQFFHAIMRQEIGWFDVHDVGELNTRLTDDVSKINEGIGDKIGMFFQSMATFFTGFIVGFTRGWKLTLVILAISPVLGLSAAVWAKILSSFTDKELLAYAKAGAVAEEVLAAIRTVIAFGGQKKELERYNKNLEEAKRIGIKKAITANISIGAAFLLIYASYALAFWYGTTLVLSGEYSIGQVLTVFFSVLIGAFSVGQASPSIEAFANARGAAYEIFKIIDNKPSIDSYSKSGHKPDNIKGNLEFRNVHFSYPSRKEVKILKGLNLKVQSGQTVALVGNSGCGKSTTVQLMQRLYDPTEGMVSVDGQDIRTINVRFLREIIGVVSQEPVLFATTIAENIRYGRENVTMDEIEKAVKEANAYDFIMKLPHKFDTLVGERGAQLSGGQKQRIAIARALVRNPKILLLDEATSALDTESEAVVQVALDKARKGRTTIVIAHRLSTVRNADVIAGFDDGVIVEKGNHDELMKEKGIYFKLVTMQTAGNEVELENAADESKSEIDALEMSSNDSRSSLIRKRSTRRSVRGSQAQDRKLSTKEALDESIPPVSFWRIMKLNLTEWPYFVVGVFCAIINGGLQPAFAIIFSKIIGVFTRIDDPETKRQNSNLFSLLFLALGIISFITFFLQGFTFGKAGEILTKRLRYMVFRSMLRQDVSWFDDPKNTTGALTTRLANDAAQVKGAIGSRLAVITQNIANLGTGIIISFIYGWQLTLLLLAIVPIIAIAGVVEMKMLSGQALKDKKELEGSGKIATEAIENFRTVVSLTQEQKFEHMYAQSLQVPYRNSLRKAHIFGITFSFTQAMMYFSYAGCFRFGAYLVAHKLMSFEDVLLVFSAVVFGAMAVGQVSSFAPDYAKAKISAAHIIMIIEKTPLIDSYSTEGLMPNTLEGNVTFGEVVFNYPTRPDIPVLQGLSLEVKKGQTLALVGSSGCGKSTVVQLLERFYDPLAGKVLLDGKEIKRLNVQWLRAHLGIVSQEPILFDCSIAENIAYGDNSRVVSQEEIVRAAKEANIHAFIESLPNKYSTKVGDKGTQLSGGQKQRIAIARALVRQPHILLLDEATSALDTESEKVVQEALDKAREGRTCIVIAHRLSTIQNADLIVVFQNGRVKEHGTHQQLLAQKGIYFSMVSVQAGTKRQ
P-gp (MDR1), sequence (P08183 whole entry): as above
hERG, sequence (Q12809 whole entry): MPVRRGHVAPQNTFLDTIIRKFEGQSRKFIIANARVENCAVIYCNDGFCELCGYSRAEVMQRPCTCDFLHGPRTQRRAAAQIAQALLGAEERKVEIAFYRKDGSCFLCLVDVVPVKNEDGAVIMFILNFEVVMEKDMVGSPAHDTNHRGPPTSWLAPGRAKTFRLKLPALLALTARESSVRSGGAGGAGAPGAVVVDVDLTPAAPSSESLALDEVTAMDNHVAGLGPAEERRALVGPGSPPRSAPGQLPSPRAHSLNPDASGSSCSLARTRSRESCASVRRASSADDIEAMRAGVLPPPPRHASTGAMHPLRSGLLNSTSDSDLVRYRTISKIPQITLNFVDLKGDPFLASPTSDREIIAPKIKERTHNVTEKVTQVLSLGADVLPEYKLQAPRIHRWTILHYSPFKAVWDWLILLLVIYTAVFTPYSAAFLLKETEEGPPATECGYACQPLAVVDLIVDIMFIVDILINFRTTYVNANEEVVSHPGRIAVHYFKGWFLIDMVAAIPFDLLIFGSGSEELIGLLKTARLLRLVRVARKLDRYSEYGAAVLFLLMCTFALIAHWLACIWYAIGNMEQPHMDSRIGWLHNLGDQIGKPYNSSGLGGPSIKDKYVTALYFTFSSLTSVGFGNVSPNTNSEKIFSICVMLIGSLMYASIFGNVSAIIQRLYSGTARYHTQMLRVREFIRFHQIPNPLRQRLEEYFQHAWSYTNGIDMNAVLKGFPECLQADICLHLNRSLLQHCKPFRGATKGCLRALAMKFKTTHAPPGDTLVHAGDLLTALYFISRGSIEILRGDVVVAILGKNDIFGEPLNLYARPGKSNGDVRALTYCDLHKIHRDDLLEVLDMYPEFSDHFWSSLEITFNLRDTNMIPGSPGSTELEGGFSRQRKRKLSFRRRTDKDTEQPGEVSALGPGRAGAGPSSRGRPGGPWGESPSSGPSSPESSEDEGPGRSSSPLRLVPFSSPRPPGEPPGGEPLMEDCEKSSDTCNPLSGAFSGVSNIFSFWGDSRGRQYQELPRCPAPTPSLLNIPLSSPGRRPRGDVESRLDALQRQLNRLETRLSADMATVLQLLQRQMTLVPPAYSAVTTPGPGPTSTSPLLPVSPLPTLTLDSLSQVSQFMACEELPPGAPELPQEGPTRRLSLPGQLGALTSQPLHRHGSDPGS

SMILES: COc1cc(N)c(Cl)cc1C(=O)NC1CCN(CCCOc2ccc(F)cc2)CC1OC (centres unmarked) [Cisapride]
- inhibition at 0.09 µM (hERG): 87.6%

SMILES: CO[C@H]1/C=C/O[C@@]2(C)Oc3c(C)c(O)c4c(O)c(c(/C=N/N5CCN(C)CC5)c(O)c4c3C2=O)NC(=O)/C(C)=C\C=C\[C@H](C)[C@H](O)[C@@H](C)[C@@H](O)[C@@H](C)[C@H](OC(C)=O)[C@@H]1C [Compound 1, rifampicin]
- Mean B-A % Recovery [1]: 74.40%
- CLint scaled (in vitro [2]; S9 microsomes): < 23.4 mL/min/kg
- remaining at 2 h (in vitro [2]; S9 microsomes): 129%
- Broth MIC [3]: 16 µM
- Average % Stability [4]: 85.2%
- Broth MIC (S. aureus NRS384 [5]): 0.0156 µM
- Broth MIC [6]: 16 µM
- % Protein Bound [7]: 79.1 ± 0.6%
- % Protein Free [7]: 20.9 ± 0.6%
- % Matrix Stability (6 h) [7]: 74.3%
- Papp A→B (P-gp (MDR1)): 0.287 ×10⁻⁶ cm/s
- Papp B→A (P-gp (MDR1)): 6.25 ×10⁻⁶ cm/s
- recovery (P-gp (MDR1)): 76.5%
- Papp A→B (in vitro [8]): 0.589 ×10⁻⁶ cm/s
- Papp B→A (in vitro [8]): 5.93 ×10⁻⁶ cm/s
- recovery (endogenous transporters): 79.5%
- % Recovery (vs. T0 stability) [9]: 81.9%
- CLint scaled (in vitro [10]; S9 microsomes): < 45.5 mL/min/kg
- remaining at 2 h (in vitro [10]; S9 microsomes): 125%
- Intracellular MIC (S. aureus NRS384 [11]): 1 µM
- Intracellular MIC [12]: No activity
- Intracellular MIC [13]: No activity
- S. aureus kidney burden, efficacy [14, 17]: effective; also recorded: reduced kidney burden
- S. aureus kidney burden, efficacy ([14]; 25 mg/kg monotherapy): ineffective
- S. aureus kidney burden, efficacy ([14]; doses lower than 0.25 mg/kg in combination with vancomycin): efficacy was reduced to vancomycin alone levels
- S. aureus kidney burden [15, 17]: to or near the limit of detection
- Mean B-A % Recovery [16]: 80.80%

SMILES: COC1C=COC2(C)Oc3c(C)c(O)c4c(=O)c(c5oc6cc(OCCN)ccc6nc-5c4c3C2=O)NC(=O)C(C)=CC=CC(C)C(O)C(C)C(O)C(C)C(OC(C)=O)C1C (centres unmarked) [Compound 2]
- Broth MIC (S. aureus NRS384 [5]): 0.412 µM
- Intracellular MIC (S. aureus NRS384 [11]): 1 µM

SMILES: CNCCOc1ccc2nc3c4c5c6c(C)c(O)c4c(=O)c(c-3oc2c1)NC(=O)C(C)=CC=CC(C)C(O)C(C)C(O)C(C)C(OC(C)=O)C(C)C(OC)C=COC(C)(O6)C5=O (centres unmarked) [Compound 3]
- Broth MIC (S. aureus NRS384 [5]): 0.0457 µM
- Intracellular MIC (S. aureus NRS384 [11]): 1 µM

SMILES: COC1C=COC2(C)Oc3c(C)c(O)c4c(=O)c(c5oc6ccc(OCCN(C)C)cc6nc-5c4c3C2=O)NC(=O)C(C)=CC=CC(C)C(O)C(C)C(O)C(C)C(OC(C)=O)C1C (centres unmarked) [Compound 6]
- Broth MIC (S. aureus NRS384 [5]): 0.0625 µM
- Intracellular MIC (S. aureus NRS384 [11]): 1 µM

SMILES: CO[C@H]1/C=C/O[C@@]2(C)Oc3c(C)c(O)c4c(c3C2=O)C2=NC3(CCN(CC(C)C)CC3)NC2=C(NC(=O)/C(C)=C\C=C\[C@H](C)[C@H](O)[C@@H](C)[C@@H](O)[C@@H](C)[C@H](OC(C)=O)[C@@H]1C)C4=O [Rifabutin]
- fold induction (CYP1A2): 2
- fold induction (CYP2B6): 2.65
- Mean A-B % Recovery [1]: 91.30%
- Mean B-A % Recovery [1]: 67.90%
- CLint scaled (in vitro [2]; s9): 2.35 mL/min/kg
- half-life (in vitro [2]; s9): 19.9 h
- remaining at 2 h (in vitro [2]; s9): 89%
- fold induction (CYP3A4): 2.36
- Average % Stability [4]: 77.8%
- % Protein Bound [7]: 89.6 ± 0.5%
- % Protein Free [7]: 10.4 ± 0.5%
- % Matrix Stability (6 h) [7]: 104.9%
- Papp A→B (P-gp (MDR1)): 3.57 ×10⁻⁶ cm/s
- Papp B→A (P-gp (MDR1)): 16.8 ×10⁻⁶ cm/s
- efflux ratio (P-gp (MDR1)): 4.7
- Papp A→B (in vitro [8]): 11 ×10⁻⁶ cm/s
- Papp B→A (in vitro [8]): 7.15 ×10⁻⁶ cm/s
- efflux ratio (in vitro [8]): 0.648
- recovery (endogenous transporters): 64.8%
- % Recovery (vs. T0 stability) [9]: 98.2%
- CLint scaled (in vitro [10]; s9): 219 mL/min/kg
- half-life (in vitro [10]; s9): 0.417 h
- remaining at 2 h (in vitro [10]; s9): 4.6%
- Mean B-A % Recovery [16]: 59.10%

SMILES: CN[C@H](CC(C)C)C(=O)N[C@H]1C(=O)N[C@@H](CC(N)=O)C(=O)N[C@H]2C(=O)N[C@H]3C(=O)N[C@H](C(=O)N[C@H](C(=O)O)c4cc(O)cc(O)c4-c4cc3ccc4O)[C@H](O)c3ccc(c(Cl)c3)Oc3cc2cc(c3O[C@@H]2O[C@H](CO)[C@@H](O)[C@H](O)[C@H]2O[C@H]2C[C@](C)(N)[C@H](O)[C@H](C)O2)Oc2ccc(cc2Cl)[C@H]1O [Vancomycin, reference compound]
- reduction in S. aureus kidney burden ([14]; vancomycin alone, 110 mg/kg sc twice daily days 1-3, NRS384, day 4): 2–3 log
- reduction in S. aureus kidney burden ([15]; vancomycin alone, 110 mg/kg sc twice daily): ~ 4 log
- hematology changes (red cell mass decrease, neutrophil decrease, platelet increase) (Sprague Dawley rats; males given vancomycin alone 110 mg/kg/day, end of treatment): also noted in males given vancomycin alone
- body weight, body weight gains, food consumption changes (Sprague Dawley rats; rat, IV QD 14 days, alone or in combination with vancomycin): no body weight, body weight gains, or food consumption changes
